Experimental data taken from patent US20100210649A1, “PYRIDAZINONES AND FURAN-CONTAINING COMPOUNDS” (Sloan-Kettering Institute for Cancer Research, priority 2006, published 2010).
Read-outs that look alike come from different tables or passages of the source.

How the values were obtained:
[1] = test system: H1975; experiment: Non Small Cell Lung Cancer proliferation assay (Alamar Blue reduction), H1975; type: cell-based, human; conditions: Homo sapiens
In short: (§1)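 Human NSCLC cells were seeded at 250 cells/well with compound at a final 1% DMSO and treated for 48 hours at 37° C. 1% DMSO served as the high control.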

[2] = test system: H358; experiment: Non Small Cell Lung Cancer proliferation assay (Alamar Blue reduction), H358; type: cell-based; conditions: Homo sapiens
In short: as §1

[3] = test system: H2122; experiment: Dose response study (Alamar Blue), H2122; type: cell-based; conditions: Homo sapiens, read-out: IC50 H2122
Description: (§2) Dose response studies against 34 compounds from the pyridazinone and phenylfuran-carboxamide class were conducted. […] In addition, Tarceva was included in these dose response studies.
(§3) The dose response studies were done with the following standard procedure. First, the cells were counted and dispensed at 250 cells/well into 384-well microplates with compound. The cells were incubated for 48 hours at 37 C to complete treatment, and then alamar blue was added for an additional 48 hours. Finally, alamar blue reduction was measured and the data was loaded into ORIS, our data screening acquisition platform.

[4] = test system: H23; experiment: Dose response study (Alamar Blue), H23; type: cell-based; conditions: Homo sapiens, read-out: IC50 H23
Description: as §2, §3

[5] = test system: H2444; experiment: Dose response study (Alamar Blue), H2444; type: cell-based; conditions: Homo sapiens, read-out: IC50 H2444
Description: as §2, §3

[6] = test system: H820; experiment: Dose response study (Alamar Blue), H820; type: cell-based; conditions: Homo sapiens, read-out: IC50 H820
Description: as §2, §3

[7] = test system: H1650; experiment: Non Small Cell Lung Cancer proliferation assay (Alamar Blue reduction), H1650; type: cell-based, human; conditions: Homo sapiens
In short: as §1

[8] = test system: H2030; experiment: Non Small Cell Lung Cancer proliferation assay (Alamar Blue reduction), H2030; type: cell-based, human; conditions: Homo sapiens
In short: as §1

[9] = test system: A549; experiment: Dose response study (Alamar Blue), A549; type: cell-based; conditions: Homo sapiens, read-out: IC50 A549
Description: as §2, §3

[10] = in vitro; conditions: human
[11] = NCI-H1975, 48 h, H1975, 12 point doubling dilution 10 uM to 5 nM, 48 h treatment, alamar blue additional 48 h, read-out: IC50 H1975
[12] = NCI-H1975, dose response 10 M to 5 nM, IC50, read-out: Dose Response (uM) H1975
[13] = NCI-H358, H358, 12 point doubling dilution 10 uM to 5 nM, 48 h treatment, alamar blue additional 48 h, read-out: IC50 H358
[14] = NCI-H358, read-out: Dose Response (uM) H358
[15] = NCI-H2122, H2122, 12 point doubling dilution 10 uM to 5 nM, 48 h treatment, alamar blue additional 48 h
[16] = NCI-H23, H23, 12 point doubling dilution 10 uM to 5 nM, 48 h treatment, alamar blue additional 48 h
[17] = NCI-H2444, H2444, 12 point doubling dilution 10 uM to 5 nM, 48 h treatment, alamar blue additional 48 h
[18] = NCI-H820, H820, 12 point doubling dilution 10 uM to 5 nM, 48 h treatment, alamar blue additional 48 h
[19] = NCI-H1650, 48 h, H1650, 12 point doubling dilution 10 uM to 5 nM, 48 h treatment, alamar blue additional 48 h, read-out: IC50 H1650
[20] = NCI-H1650, dose response 10 M to 5 nM, IC50, read-out: Dose Response (uM) H1650
[21] = NCI-H2030, 48 h, H2030, 12 point doubling dilution 10 uM to 5 nM, 48 h treatment, alamar blue additional 48 h, read-out: IC50 H2030
[22] = NCI-H2030, dose response 10 M to 5 nM, IC50, read-out: Dose Response (uM) H2030
[23] = A549, 12 point doubling dilution 10 uM to 5 nM, 48 h treatment, alamar blue additional 48 h

| Structure (SMILES) | IC50 [1, 11] | IC50 [1, 12] | IC50 [2, 13] | IC50 [2, 14] | IC50 [3, 15] | IC50 [5, 17] | IC50 [6, 18] | IC50 [7, 19] | IC50 [7, 20] | IC50 [8, 21] | IC50 [8, 22] | IC50 [9, 23] | IC50 [4, 16] | IC50 at 72 h ([10]; CytoTox (uM) NHBE) | IC50 at 72 h ([10]; CytoTox (uM) WI-38) | also measured |
| --- | --- | --- | --- | --- | --- | --- | --- | --- | --- | --- | --- | --- | --- | --- | --- | --- |
| COc1cccc(-n2ncc(Cl)c(Cl)c2=O)c1 [compound 267061] | 0.31 µM | 0.37 µM | 0.46 µM | 0.24 µM | 1200 nM | 370 nM | 260 nM | 1.96 µM | 3.52 µM | 0.36 µM | 0.72 µM | 1760 nM | 280 nM | 1.7 µM | 3.91 µM | – |
| O=c1c(Cl)c(Cl)cnn1-c1ccccc1 [compound 257014] | 0.36 µM | 0.29 µM | – | – | – | – | – | 1.64 µM | 3.18 µM | 0.41 µM | 0.55 µM | – | – | 3.29 µM | 6.93 µM | IC50 ([2]; NCI-H358, 48 h, H358, 12 point doubling dilution 10 uM to 5 nM, 48 h treatment, alamar blue additional 48 h, read-out: IC50 H358): 0.68 µM; IC50 ([2]; NCI-H358, dose response 10 M to 5 nM, IC50, read-out: Dose Response (uM) H358): 0.31 µM; IC50 ([3]; NCI-H2122, 48 h): 1160 nM; IC50 ([4]; NCI-H23, 48 h): 260 nM; IC50 ([5]; NCI-H2444, 48 h): 340 nM; IC50 ([6]; NCI-H820, 48 h): 240 nM; IC50 ([9]; A549, 48 h): 1680 nM |
| Cc1ccc(-n2ncc(Cl)c(Cl)c2=O)cc1Cl [compound 267070] | > 10 µM | 0.91 µM | > 10 µM | 0.97 µM | > 10000 nM | > 10000 nM | > 10000 nM | > 10 µM | > 10 µM | > 10 µM | 5.18 µM | > 10000 nM | > 10000 nM | > 10 µM | > 10 µM | – |
| COCCOc1cccc(-n2ncc(Br)c(Br)c2=O)c1 [compound 267084] | 0.21 µM | 0.23 µM | 0.27 µM | 0.13 µM | 1120 nM | 230 nM | 180 nM | 1.04 µM | 1.51 µM | 0.22 µM | 0.61 µM | 840 nM | 170 nM | 2.56 µM | 2.33 µM | – |
| Cc1cc(C)cc(-n2ncc(Cl)c(Cl)c2=O)c1 [compound 257020] | 0.58 µM | 0.27 µM | 0.62 µM | 0.22 µM | 2210 nM | 400 nM | 450 nM | 2.58 µM | 2.1 µM | 0.57 µM | 0.56 µM | 2870 nM | 460 nM | 3.18 µM | 6.78 µM | – |

Continued, in another order:

| IC50 [1, 11] | IC50 [1, 12] | IC50 [2, 13] | IC50 [2, 14] | IC50 [3, 15] | IC50 [5, 17] | IC50 [6, 18] | IC50 [7, 19] | IC50 [7, 20] | IC50 [8, 21] | IC50 [8, 22] | IC50 [9, 23] | Structure (SMILES) | IC50 [4, 16] | IC50 at 72 h ([10]; CytoTox (uM) NHBE) | IC50 at 72 h ([10]; CytoTox (uM) WI-38) | also measured |
| --- | --- | --- | --- | --- | --- | --- | --- | --- | --- | --- | --- | --- | --- | --- | --- | --- |
| 1.18 µM | 0.65 µM | 1.83 µM | 0.94 µM | 4040 nM | 1170 nM | 770 nM | 3.04 µM | 2.04 µM | 1.79 µM | 1.26 µM | 3760 nM | COc1nn(-c2cccc(C)c2)c(=O)c(Cl)c1Cl [compound 257028] | 680 nM | 5.24 µM | 7.52 µM | – |
| 1.27 µM | 0.69 µM | 1.39 µM | 0.29 µM | 6000 nM | 1260 nM | 1480 nM | 3.95 µM | 3.92 µM | 1.11 µM | 1.09 µM | 5310 nM | O=c1c(Cl)c(Cl)cnn1-c1ccc(C(F)(F)F)cc1 [compound 267060] | 1070 nM | 3.44 µM | > 10 µM | – |
| 0.8 µM | 0.5 µM | 1.33 µM | 0.3 µM | 2340 nM | 530 nM | 410 nM | 3.16 µM | 1.93 µM | 0.81 µM | 0.99 µM | 3270 nM | Cc1cccc(-n2ncc(I)c(I)c2=O)c1 [compound 267085] | 720 nM | 2.88 µM | 5.51 µM | – |
| 0.47 µM | 0.32 µM | 0.78 µM | 0.35 µM | 2070 nM | 410 nM | 370 nM | 2.49 µM | 2.73 µM | 0.51 µM | 0.65 µM | 2630 nM | Cc1ccc(-n2ncc(Cl)c(Cl)c2=O)cc1 [compound 257016] | 320 nM | 3.29 µM | 6.43 µM | – |
